One experiment deals with T1, inducible NO synthase (Rattus norvegicus, UniProt Q06518).
T1 construct: the compounds were tested on isolated rat aorta from shocked animal; from tissue; host or cells: thoracic aorta rings, endothelium removed, from endotoxin-treated Sprague Dawley rats
In words: In vitro effect on inducible NO synthase in the isolated rat aorta from endotoxin-shocked animal. The class given is cell-based. The following applies: aorta from endotoxin-treated rats, endothelium disrupted; PE 1 μM; read-out: Test on inducible NO synthase IC50.

The target of another experiment is T2, constitutive NO synthase (Rattus norvegicus, UniProt Q62600).
T2 construct: Preparations of isolated rat aorta with endothelium; from tissue; host or cells: isolated thoracic aorta rings with endothelium, Sprague Dawley rat
T2 sequence (Q62600 2-1202 limits assumed): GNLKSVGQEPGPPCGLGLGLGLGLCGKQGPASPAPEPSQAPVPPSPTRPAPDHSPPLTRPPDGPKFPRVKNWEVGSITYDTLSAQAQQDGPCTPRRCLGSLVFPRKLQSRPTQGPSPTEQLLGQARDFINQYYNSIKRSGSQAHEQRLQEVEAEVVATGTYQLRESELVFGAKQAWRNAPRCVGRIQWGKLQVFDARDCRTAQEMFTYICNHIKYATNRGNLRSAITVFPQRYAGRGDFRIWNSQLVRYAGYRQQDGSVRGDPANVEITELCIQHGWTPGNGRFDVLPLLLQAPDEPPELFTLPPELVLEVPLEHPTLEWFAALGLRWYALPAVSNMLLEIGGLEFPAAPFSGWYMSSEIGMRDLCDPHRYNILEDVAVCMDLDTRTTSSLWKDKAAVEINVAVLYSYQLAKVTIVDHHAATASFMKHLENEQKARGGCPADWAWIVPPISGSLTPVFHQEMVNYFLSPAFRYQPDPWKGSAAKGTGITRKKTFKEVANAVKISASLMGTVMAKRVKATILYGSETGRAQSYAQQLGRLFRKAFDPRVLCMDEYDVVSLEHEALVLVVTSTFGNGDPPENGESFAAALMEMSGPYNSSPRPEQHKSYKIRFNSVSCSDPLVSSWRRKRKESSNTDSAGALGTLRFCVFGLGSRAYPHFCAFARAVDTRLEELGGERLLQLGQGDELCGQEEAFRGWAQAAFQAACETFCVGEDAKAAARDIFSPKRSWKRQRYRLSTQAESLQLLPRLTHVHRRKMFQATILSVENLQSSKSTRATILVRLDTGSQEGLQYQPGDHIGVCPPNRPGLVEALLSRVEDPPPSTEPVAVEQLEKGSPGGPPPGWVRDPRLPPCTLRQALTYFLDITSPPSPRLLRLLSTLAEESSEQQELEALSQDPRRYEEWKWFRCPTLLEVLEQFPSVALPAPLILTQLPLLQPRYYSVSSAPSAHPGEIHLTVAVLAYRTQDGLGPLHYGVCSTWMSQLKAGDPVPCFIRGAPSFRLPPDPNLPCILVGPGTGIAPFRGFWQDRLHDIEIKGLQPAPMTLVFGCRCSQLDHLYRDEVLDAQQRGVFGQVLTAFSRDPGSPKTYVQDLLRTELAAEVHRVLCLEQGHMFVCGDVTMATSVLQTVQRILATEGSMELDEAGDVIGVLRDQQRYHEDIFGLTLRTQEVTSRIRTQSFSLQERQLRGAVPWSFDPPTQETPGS
Nature of the experiment: In vitro effect on constitutive NO synthase in the isolated rat aorta. The class given is cell-based. The settings on record: isolated rat aorta with endothelium; reversal of carbachol relaxation; PE 1 μM; read-out: Test on constitutive NO synthase IC50. On the procedure:
1-In vitro effect on constitutive NO synthase in the isolated rat aorta;
Preparations of isolated rat aorta with endothelium were prepared as previously described (M. Auguet, S. Delaflotte, P. E. Chabrier and P. Braquet--Comparative effects of endothelium and phorbol 12-13 dibutyrate in rat aorta, Life Sciences, 1989, 45, 2051-2059).
Male Sprague Dawley rats (270-360 g, Charles River, Paris) were sacrificed by cervical dislocation and the thoracic aorta removed and cleaned of the surrounding tissue. Rings 2 mm wide were suspended in organ baths containing 10 ml of physiological solution (for composition, see below) under a tension of 2 g at 37° C. and gassed with O2 /CO2 (95%/5%). Contractile responses were measured, using force displacement transducers (Slatham UC2) coupled to a Gould 8000 S polygraph. An equilibration period of one hour was allowed before experimentation. Normal physiological solution was composed of (mM): NaCl, 118; KCl, 4.7; CaCl2, 2.5; KH2 PO4, 1.2; MgSO4, 0.6; NaHCO3, 25; glucose, 11. After equilibration in normal medium, the preparation was subjected to a near maximal dose (about 95%) of phenylephrine (PE, 1 μM). When the contraction was stable, carbachol (10 μM) was tested in order to evaluate the presence or absence of endothelium. […]

The next experiment addresses T3, cyclooxygenase (Mus musculus, UniProt Q05769).
T3 construct: main cyclooxygenase products produced by J774A1 cell line; endogenous in cells
T3 sequence (Q05769 18-604): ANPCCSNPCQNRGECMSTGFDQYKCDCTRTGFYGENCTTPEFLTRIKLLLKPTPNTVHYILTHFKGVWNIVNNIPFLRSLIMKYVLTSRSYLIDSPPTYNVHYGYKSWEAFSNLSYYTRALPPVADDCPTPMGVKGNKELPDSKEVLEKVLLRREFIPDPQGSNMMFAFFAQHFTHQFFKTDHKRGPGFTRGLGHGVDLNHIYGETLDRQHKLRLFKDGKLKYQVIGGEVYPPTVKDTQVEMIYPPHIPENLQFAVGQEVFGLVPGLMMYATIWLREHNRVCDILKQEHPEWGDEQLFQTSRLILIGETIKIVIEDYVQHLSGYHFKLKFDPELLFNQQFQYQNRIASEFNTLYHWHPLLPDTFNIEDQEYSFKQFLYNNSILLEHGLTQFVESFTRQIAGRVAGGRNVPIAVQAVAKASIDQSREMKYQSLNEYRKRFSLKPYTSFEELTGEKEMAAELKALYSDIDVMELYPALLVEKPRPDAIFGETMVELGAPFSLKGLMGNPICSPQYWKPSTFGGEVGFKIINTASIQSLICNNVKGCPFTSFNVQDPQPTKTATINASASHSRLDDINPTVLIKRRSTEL
In words: In vitro effect on prostaglandin (6 keto PGF1α) production induced by LPS+IFNγ on J774A1 monocyte/macrophage cell line. The following applies: for effect on release of 6 keto PGF1α: LPS+IFNγ, J774A1 culture media. The experiment is classed as cell-based, murine. On the procedure: 6-In vitro effect on prostaglandin production induced by LPS+IFNγ on J774A1 monocyte/macrophage cell line:
Levels of one of the main cyclooxygenase products produced by J774A1 cell line (i.e.: 6 keto PGF1α) the stable metabolite of PGI2 were assessed in the culture media by a specific radioimmunoassay (NEN, Kit NEK 025).

In experiment [1] the test system is J774 A1 monocyte/macrophage cell line. Nature of the experiment: In vitro effect on nitrite production induced by LPS+INFγ on J774 A1 monocyte/macrophage cell line. The experiment is classed as cell-based, murine. The source says: 5-In vitro effect on nitrite production induced by LPS+INFγ on J774 A1 monocyte/macrophage cell line:
Macrophage type cells like J774 A1 cell line are interesting to use since they are important cells in inflammation and express large amount of NO (due to the induction of NO synthase) and cyclooxygenase products. They are activated with lipopolysaccharide (LPS) in presence of interferon γ (INFγ). This assay was used to compare the effects of compounds of the invention with the association of their separated parent compounds.
Murine monocyte/macrophage cells were grown in Dubecco's modified Eagle's medium at 37° C. The cells were plated in 24 well culture plate (NUNC) and were used for experiments at about 2×10^5 cells/plate. The cells were activated with LPS (1 μg/ml) from E. Coli (SO55:B5) and murine recombinant IFNγ (50 U/ml) and then incubated in the presence or absence of the compounds. After 48 h nitrite (NO2 -) levels, which correlate with the activation of NO synthase, were assessed in the culture media by the colorimetric method according to Green et al (L. Green, D. Wagner, J. Glogowski, P. Skipper, J. Wishwok and S. Tannenbaum, Analysis of nitrate, nitrite and [15N] nitrate in biological fluids. Analytical Biochemistry 126, 131-138, 1982).

Experiment [2] has as its system neuronal death after focal cerebral ischemia. In words: In vivo effect on neuronal death after focal cerebral ischemia in mice. The settings on record: 3 mg/kg ip, 5 hours after middle cerebral artery occlusion; mean of six animals. On the procedure: 9-In vivo effect on neuronal death after focal cerebral ischemia in mice:
Systemic intraperitoneal (ip) administration of the compounds was carried out 5 hours after cortical infarction induced by the occlusion of the middle cerebral artery in male Swiss mice (20-22 g), according to Duverger et al.--Pharmacology of cerebral ischemia in Krieglstein and Oberpichler, Wissenschaftliche Verlagsgesellschaft, Stuttgart, 1990, 409-413. Four days later, the mice were decapitated and their brains removed and frozen to be then sectioned in coronal slices of […] thickness. Area infarction was measured by image analysis. Reduction of infarcted volume was measured and compared with non treated animal. The percentage indicated the mean reduction of infarct from six animals per group--MK 801, a NMDA antagonist was used as a control substance.

Experiment [3] has as its system vascular reactivity to methoxamine. Nature of the experiment: In vivo effect on endotoxin treated pithed rat. The following applies: dose 30 mg/kg/h; endotoxin 300 μg/kg/h; control 79 ± 9, EDTX 278 ± 34. On the procedure: 10-In vivo effect on endotoxin treated pithed rat:
As previously reported, the association of an inhibitor of NO synthase and an inhibitor of cyclooxygenase has a synergistic effect to restore the blood pressure and vascular reactivity in an endotoxinic or septic animal.
Male Sprague Dawley rats (body weight 280-320 g) were pithed. One hour after pithing, animals were given endotoxin (EDTX, Escherichia Coli, lipopolysaccharide, O III, B4 =300 μg/kg/h) for 60 minutes. […]

The term IC50 denotes the midpoint of a concentration-inhibition curve. Consider `COC(=O)[C@H](CCCNC(N)=N[N+](=O)[O-])NC(=O)c1ccccc1OC(C)=O` [Example 16], for which the IC50 on inducible NO synthase worked out at 4 µM; on constitutive NO synthase, 9 µM.

Regarding `CNC(=N)NCCCC(N)C(=O)O.Cc1cccc(Nc2ccccc2C(=O)O)c1C` [Example 12], the IC50 at constitutive NO synthase is 10 µM.

Take `COC(=O)[C@@H](N)CCCNC(N)=N[N+](=O)[O-]` [L-NAME, N-ω-nitro-L-Arginine methyl ester, reference compound]: the “effect on release of 6 keto PGF1α” value on cyclooxygenase is “not affected”.

With `NC(=N[N+](=O)[O-])NCCC[C@H](N)C(=O)O` [L-NO, N-ω-nitro-L-Arginine, reference compound], the “effect on release of 6 keto PGF1α” value at cyclooxygenase is reported as “not affected”. Besides, in experiment [1] (Mus musculus, J774.A1, activated cells, LPS 1 μg/ml + IFNγ 50 U/ml, 48 h), the IC50 turned out to be 15 µM.

In the case of `CC1=C(CC(=O)O)c2cc(F)ccc2/C1=C\c1ccc([S+](C)[O-])cc1.N=C(NCCC[C@H](N)C(=O)O)N[N+](=O)[O-]` (stereo not shown) [Example 13], the “% OF INHIBITION of nitrite production” value in experiment [1] (10^-4 M, LPS+INF, J774) turned out to be 71%; in experiment [1] (10^-5 M, LPS+INF, J774), 63%; in experiment [1] (10^-6 M, LPS+INF, J774), 56%.

With `C[C@]12N[C@H](Cc3ccccc31)c1ccccc12` [MK 801, reference compound], the Reduction of infarct in experiment [2] is given as -51%.

The inhibition is how much of the control response was suppressed. For `COC(=O)C(CCCNC(=N)N[N+](=O)[O-])NC(=O)CC1=C(C)C(=Cc2ccc([S+](C)[O-])cc2)c2ccc(F)cc21` (stereo not shown) [Example 17], the inhibition at 100 µM on cyclooxygenase (J774.A1, 10^-4 M, LPS+INF, J774A1, read-out: % OF INHIBITION of 6-keto PG F1 production) was 92%; in experiment [1] (Mus musculus, J774.A1, 10^-4 M, LPS+INF, J774), 73%. In addition, the inhibition at 10 µM worked out at 83% at cyclooxygenase (J774.A1, 10^-5 M, LPS+INF, J774A1, read-out: % OF INHIBITION of 6-keto PG F1 production) and 57% in experiment [1] (Mus musculus, J774.A1, 10^-5 M, LPS+INF, J774). The inhibition at 1 µM was 74% at cyclooxygenase (J774.A1, 10^-6 M, LPS+INF, J774A1, read-out: % OF INHIBITION of 6-keto PG F1 production) and 49% in experiment [1] (Mus musculus, J774.A1, 10^-6 M, LPS+INF, J774). For the same compound, the Reduction of infarct in experiment [2] is -69%.

For the compound `CNC(=N)NCCC[C@H](N)C(=O)O.O=C(O)c1ccccc1O` [Example 2], the “vascular reactivity to methoxamine DE50” value in experiment [3] stood at 98 ± 35 µg/kg. Also, the Reduction of infarct in experiment [2] is -55%. For the same compound, the “% OF INHIBITION of nitrite production” value came to 75.5% in experiment [1] (10^-4 M, LPS+INF, J774); 61% in experiment [1] (10^-5 M, LPS+INF, J774); 53% in experiment [1] (10^-6 M, LPS+INF, J774).

Source of the values: patent US5360925A, “Dual inhibitors of no synthase and cyclooxygenase, process for their preparation and therapeutical compositions containing them” (priority 1992, dated 1994).
